According to patent US20180008569A1, “PROSTAGLANDIN TRANSPORTER INHIBITORS FOR INHIBITING OVULATION” (TEL HASHOMER MEDICAL RESEARCH INFRASTRUCTURE AND SERVICES …, priority 2015, published 2018):
Marks after values point to notes of the source that are not given here. One block for each molecule: values may come before it.

Legend:
PGT [1] = molecular target: T1, PGT (Mus musculus, UniProt Q9EPT5); experiment: Ovarian morphology (histology) in superovulated mice
PGT [2] = molecular target: PGT (Homo sapiens, UniProt Q92959); experiment: PGE2 concentration in media of MGCs by enzyme immunoassay (EIA); assay type: cell-based; parameters: basal media concentration of PGE2: dose or concentration left out as unconfirmed
PGT [3] = molecular target: T1, PGT; experiment: Ovulated oocyte count in PMSG-primed/hCG-triggered immature female mice; assay type: in vivo; parameters: from tissue; host or cells: whole animal: PMSG-primed/hCG-triggered immature female mice (ovary)
[4] = system: PGE2 downstream target genes; experiment: Ovarian expression of ovulatory cascade, PG receptor and PG metabolism genes by qPCR in PMSG-primed/hCG+DIDS-treated mice; assay type: in vivo
Description: To characterize the ovulation-blocking effect of PGT at the molecular level, the effect of DIDS on the LH/CGR dependent activities was evaluated. Key representative genes of the ovulatory cascade were studied, including, oocyte maturation genes: amphiregulin (AREG), epiregulin (EREG), progesterone receptor (PR); cumulus expansion genes: tumor necrosis factor alpha-induced protein (TNFAIP6); follicular rupture related genes: disintegrin and metalloproteinase with thrombospondin motifs 1 (ADAMTS1), cathepsin L (CTSL); the ovulatory related genes: follicle stimulating hormone receptor (FSHR) and luteinizing hormone/chorionic gonadotropin receptor (LHCGR); and steroidogenesis related genes: steroidogenic acute regulatory protein (StAR) and cholesterol side cleavage chain (p450SCC). After total RNA was extracted from the ovaries of PMSG-primed/hCG+DIDS-treated mice and converted to cDNA, the expression of genes of interest was quantified by qPCR.

PGT [5] = molecular target: T1, PGT; experiment: Oocyte maturation and cumulus expansion in vivo in mice; parameters: from tissue; host or cells: whole animal: PMSG-primed/hCG-triggered immature female mice (ovary)
[6] = Serum progesterone levels (corpus luteum function) in PMSG-primed/hCG-triggered mice; assay type: in vivo; settings: concurrent treatment with DIDS, 24 hours post-hCG
PGT transcripts in MGCs = experiment: PGT transcripts (qPCR) in cultured FSH-pretreated human mural granulosa cells; settings: for FSK-induced upregulation of PGT expression: then FSK 10 μM 24 hours; for hCG-induced upregulation of PGT expression: then hCG 1U/ml 24 hours
Description: FSH-pretreated MGCs were then exposed to vehicle (PBS) or AREG for 24 hours. PGT was quantified by qPCR and normalized to/3-actin expression. Data represent the mean±SEM of three independent experiments.

EP receptor = experiment: Intracellular cAMP in MGCs after PGE2 pretreatment (EP receptor desensitization); assay type: cell-based, human; settings: pretreated with 10 μM PGE2 10 min, washed, 10 μM PGE2 additional 10 min
Description: Inhibition of PGT activity or the provision of excess PGE2 results in the desensitization of the prostaglandin receptors […] and EP4 and thereby in a reduction in PGE2 signaling. An important second messenger for PGE2 is intracellular cAMP resulting from activation of either EP2 or EP4 receptor by PGE2. Thus, the hypothesis that excess PGE2 results in reduced PG signaling in human granulosa cells was tested. MGCs were incubated with 10 μM PGE2 for 10 min or pretreated with 10 μM PGE2 for 10 min, washed and then treated with 10 μM PGE2 for additional 10 min cAMP levels were measured in the cell lysate and was normalized to total protein content.

EP4 receptor = EP4 receptor mRNA expression in FSH-pretreated MGCs; assay type: cell-based, human; settings: 10 μM PGE2, 24 hours
[7] = system: whole ovarian PGT transcripts; experiment: Whole ovarian PGT transcripts in PMSG-primed/hCG-triggered immature mouse superovulation model; assay type: in vivo; settings: PMSG for 48 hours
[8] = Homo sapiens, read-out: increase in PGT transcripts (fold induction)

T1 sequence (Q9EPT5 whole entry): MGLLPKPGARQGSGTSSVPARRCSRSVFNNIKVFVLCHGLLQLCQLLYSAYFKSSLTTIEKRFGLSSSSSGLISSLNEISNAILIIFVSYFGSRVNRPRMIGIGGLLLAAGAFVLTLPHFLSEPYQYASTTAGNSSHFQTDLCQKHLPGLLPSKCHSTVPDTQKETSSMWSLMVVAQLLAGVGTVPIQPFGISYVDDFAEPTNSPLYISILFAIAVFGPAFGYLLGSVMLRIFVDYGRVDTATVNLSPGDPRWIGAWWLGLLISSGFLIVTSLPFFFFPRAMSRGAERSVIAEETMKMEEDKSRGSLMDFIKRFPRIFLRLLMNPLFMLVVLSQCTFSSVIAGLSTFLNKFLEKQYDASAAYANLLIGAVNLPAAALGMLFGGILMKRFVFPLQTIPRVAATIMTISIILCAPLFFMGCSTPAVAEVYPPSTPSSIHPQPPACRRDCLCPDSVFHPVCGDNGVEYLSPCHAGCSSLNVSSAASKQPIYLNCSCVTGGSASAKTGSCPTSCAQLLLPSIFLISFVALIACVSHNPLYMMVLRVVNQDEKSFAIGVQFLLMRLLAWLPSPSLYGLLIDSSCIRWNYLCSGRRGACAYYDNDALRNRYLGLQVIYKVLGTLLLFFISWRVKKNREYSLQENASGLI

Molecule: Cc1c(C2(c3cc(Br)c(O)c(Br)c3C)OS(=O)(=O)c3ccccc32)cc(Br)c(O)c1Br [BCG, Bromocresol Green]
- ovarian morphology (PGT [1]; hCG+BCG 350 mg/kg, 16 hours after hCG): un-ruptured follicles with entrapped oocytes
- increase in the media concentration of PGE2 relative to controls (PGT [2]; co-treatment hCG 1U/ml + BCG 50 mM, 24 hours): ~3 fold
- basal media concentration of PGE2 (PGT [2]; no hCG): without effect
- ovulation (PGT [3]; BCG at 500 and 350 mg/kg with hCG, 16 hours): complete blockade of ovulation
- No. ova/ovulating mice (Mean ± SEM) (PGT [3]; hCG + BCG 250 mg/kg, 16 hours): 58.4 ± 7.4
- Range of oocytes in ovulating mice (PGT [3]; hCG + BCG 250 mg/kg, 16 hours): 12-61
- No. ova/ovulating mice (Mean ± SEM) (PGT [3]; hCG + BCG 300 mg/kg, 16 hours): 1.3*
- Range of oocytes in ovulating mice (PGT [3]; hCG + BCG 300 mg/kg, 16 hours): 1-2
- No. ova/ovulating mice (Mean ± SEM) (PGT [3]; hCG + BCG 350 mg/kg, 16 hours): 0*
- No. ova/ovulating mice (Mean ± SEM) (PGT [3]; hCG + BCG 500 mg/kg, 16 hours): 0*

- PGDH expression ([4]; addition of DIDS): not affected
- downregulation of EP2 by hCG ([4]; addition of DIDS): abolished
- reduction of FSHR mRNA in response to hCG ([4]; addition of DIDS): abolished
- upregulation by hCG of COX-2 ([4]; addition of DIDS): inhibited
- upregulation by hCG of EP4 ([4]; addition of DIDS): inhibited
- upregulation by hCG of PGT ([4]; addition of DIDS): inhibited
- expression of most of the ovulation related transcripts studied (except p450SCC and LHCGR) ([4]; ovaries of PMSG-primed/hCG+DIDS-treated mice): profound inhibition
- cumulus state of COCs (PGT [5]; DIDS, 24 hours following treatment with hCG): compact cumulus
- oocytes at GV (PGT [5]; hCG + DIDS): 100% (102/102)
- oocytes at MI (PGT [5]; hCG + DIDS): 0% (0/102)
- oocytes at MII (PGT [5]; hCG + DIDS): 0% (0/102)
- cumulus state of COCs (PGT [5]; hCG and DIDS 50 mg/kg): compact cumulus
- oocyte maturation stage (PGT [5]; hCG+DIDS-treated mice): immature and at the GV stage
- cumuli of recovered cumulus-oocyte-complexes (PGT [5]; lower doses of DIDS): expanded normal-appearing cumuli
- denuded oocytes from recovered cumulus-oocyte-complexes (PGT [5]; lower doses of DIDS): morphologically normal, mature (M2)
- ovulated oocyte count (PGT [3]; different concentrations of DIDS at time of hCG, 16 hours): dose-dependent decrements
- No. of oocytes in ovulating mice (PGT [3]; hCG + DIDS 5 mg/kg, 16 hours): 7-77
- No. ova/ovulating mice (Mean ± SEM) (PGT [3]; hCG + DIDS 5 mg/kg, 16 hours): 53.5 ± 5.1
- No. of oocytes in ovulating mice (PGT [3]; hCG + DIDS 10 mg/kg, 16 hours): 10-60
- No. ova/ovulating mice (Mean ± SEM) (PGT [3]; hCG + DIDS 10 mg/kg, 16 hours): 27.4 ± 6.8
- No. of oocytes in ovulating mice (PGT [3]; hCG + DIDS 20 mg/kg, 16 hours): 1-51
- No. ova/ovulating mice (Mean ± SEM) (PGT [3]; hCG + DIDS 20 mg/kg, 16 hours): 22 ± 6.8
- No. ova/ovulating mice (Mean ± SEM) (PGT [3]; hCG + DIDS 50 mg/kg, 16 hours): 9
- inhibition at 50 mg/kg (PGT [3]; mouse, read-out: inhibition of ovulation): 95.5%
Molecule: O=S(=O)(O)c1cc(N=C=S)ccc1C=Cc1ccc(N=C=S)cc1S(=O)(=O)O [DIDS, 4,4′-Diisothiocyanatostilbene-2,2′-disulfonic acid]
- ovarian morphology (PGT [1]; hCG+DIDS, 16 hours after hCG): numerous unruptured preovulatory follicles with entrapped oocytes
- ovarian morphology (PGT [1]; hCG+DIDS, forty hours after hCG injection): still contained entrapped oocytes in preovulatory follicles
- serum progesterone levels [6]: significant reduction

Molecule: C=C[C@@]1(C)CC(=O)[C@]2(O)[C@@]3(C)[C@@H](O)CCC(C)(C)[C@@H]3[C@H](O)[C@H](OC(C)=O)[C@@]2(C)O1 [FSK, forskolin]
- fold induction at 10 µM (PGT transcripts in MGCs; [8]): 25

Molecule: O=S(=O)(NCCNC/C=C/c1ccc(Br)cc1)c1cccc2cnccc12 [H89]
- FSK-induced upregulation of PGT expression (PGT transcripts in MGCs; pretreatment 10 μM for 1 hour): largely inhibited
- hCG-induced upregulation of PGT expression (PGT transcripts in MGCs; pretreatment 10 μM for 1 hour): largely inhibited

- EP4 receptor mRNA expression compared to controls (EP4 receptor): significant downregulation
Molecule: CCCCC[C@H](O)/C=C/[C@H]1[C@H](O)CC(=O)[C@@H]1C/C=C\CCCC(=O)O [PGE2, Prostaglandin E2]
- intracellular cAMP in response to further PGE2 stimulation (EP receptor): significantly reduced accumulation of intracellular cAMP

Molecule: CCCCCCCCCCCCCC(=O)O[C@@H]1[C@@H](C)[C@@]2(O)[C@@H](C=C(CO)C[C@]3(O)C(=O)C(C)=C[C@@H]23)[C@@H]2C(C)(C)[C@]12OC(C)=O [PMA, phorbol myristate acetate]
- fold induction at 0.02 µM (PGT transcripts in MGCs; [8]): 11

Molecule: N#CC(=C(/N)Sc1ccccc1N)/C(C#N)=C(\N)Sc1ccccc1N [U0126]
- FSK-induced upregulation of PGT expression (PGT transcripts in MGCs; pretreatment 10 μM for 1 hour): markedly inhibited
- PMA-mediated upregulation of PGT transcripts (PGT transcripts in MGCs; pretreatment 10 μM for 1 hour, then PMA 20 nM 24 hours): markedly inhibited
- hCG-induced upregulation of PGT expression (PGT transcripts in MGCs; pretreatment 10 μM for 1 hour): effectively abolished

Molecule: Pregnant mare serum gonadotropin [PMSG]
- level of PGT in the ovaries relative to control (saline) [7]: 2.3 folds

B1: amphiregulin (protein, UniProt P31955 100-248, looked up)
Amphiregulin: VIKPKKNKTEGEKSTEKPKRKKKGGKNGKGRRNKKKKNPCTAKFQNFCIHGECRYIENLEVVTCNCHQDYFGERCGEKSMKTHSEDDKDLSKIAVVAVTIFVSAIILAAIGIGIVITVHLWKRYFREYEGETEERRRLRQENGTVHAIA
- induction of PGT expression (PGT transcripts in MGCs; FSH-pretreated MGCs exposed to AREG for 24 hours, vs vehicle (PBS)): 3 fold
